# In patent publication US4560758A, “Process for preparing pyrrolo[1,2-a]imidazoles and imidazo[1,2-a]pyridines” (Pennwalt Corporation, priority 1984, dated 1985):
# Where a name gives a salt, the structure may show the parent alone.
# Assays:
# [1] = tested on: antibody secreting cells in the spleen; test: Kennedy Plaque Assay (humoral immune system depressed by 6-mercaptopurine; number of plaques); format: in vivo; settings: for change in vivo at 6.25 mg/kg: ip, 60 mg/Kg of 6 MP plus 6.25 mg/Kg (i.p.) of compound, read-out: Percent Restoration (+) or Suppression (-)
# Method: In this assay, in which the in vitro model used was the Kennedy modification of the Jerne (or plaque) technique (J. C. Kennedy et al, Immunol., 20, p. 253 (1971)), the animal's humoral immune system is depressed artificially by the known immunosuppressant drug, 6-mercaptopurine (6-MP), and then the ability of a drug to either suppress it further or restore it towards normal is evaluated. The change in the number of plaques, which is a direct correlate of the change in the number of antibody secreting cells in the spleen, is used to measure this effect. For example, the compound of Example 11 results in greater than 100% restoration of the number of plaques and thus causes an immunoenhancement of the humoral system. In contrast, the compound of Example 28 results in about 24% further suppression of the number of plaques and thus behaves as an immunosuppressant.
# of 6 MP plus 6.25 mg/Kg (i.p.)
# ^1 without 6MP treatment
# ^2 percent change from control (i.e., without 6MP)
# murine marcophage cells = test: Chemotaxis assay (migration of macrophages toward complement-derived chemoattractant); format: cell-based
# Method: In this assay, done according to the methods of R. Synderman et al., Infection & Immunity, 11, p. 488-492 (1975) and M. S. Meltzer et al., J. Natl. Cancer Inst., 54, p. 795-799 (1975), the ability of a drug substance to influence the movement of cells responding to a stimulus induced by some foreign substance or injury is determined. This is vitro assay utilizes a chemoattractant, derived from a component of the immunological system known as complement, to induce murine marcophage cells to migrate toward it. The effect of a drug substance on such movements can be measured by counting the cells. […] For example, the compound of Example 15 stimulates migration by 35.6% at 10^-8 molar concentration and is thus immunoenhancing.
# mouse hepatitis virus = test: Antiviral assay - hepatitis in mice; format: in vivo; settings: once daily for 3 days; for Mean Liver Score: day 4, 0 (normal) to 4 (extreme discoloration); for Percent Survival: day 21
# Method: Female mice weighing approximately 21-24 grams were inoculated with 0.1 ml of a mouse liver suspension containing mouse hepatitis virus, which liver suspension is at a dilution of 10^-5.5. Starting twenty-four hours post-virus inoculation, the animals were intraperitoneally ("i.p.") or orally administered the test compound(s) once daily for 3 days. On day 4, one third to one half of each group of mice were sacrificed and their liver removed for examination. Each liver was scored and assigned a number from 0 (normal liver) to 4 (extreme discoloration). The mean liver score per group was computed. The number of animals surviving until termination of the study (day 21) was also recorded. Anti-hepatitis activity is evidenced by increased survivor numbers and improved liver scores.
# [2] = 12.5 mg/Kg i.p., control 2.6 (Examples 11, 16, 23), 3.4 (25, 26)
# [3] = 12.5 mg/Kg i.p., control 5% (Examples 11, 16, 23), 6% (25, 26)
# [4] = 25 mg/Kg i.p., control 2.6 (Examples 11, 23), 3.4 (25, 26)
# [5] = 25 mg/Kg i.p., control 5% (Examples 11, 23), 6% (25, 26)
smiles,measurement,setting,value
"CSC1CCN2CC(c3ccccc3)N=C12 (centres unmarked) [Example 1, 2,5,6,7-Tetrahydro-2-phenyl-7-methylthio-3H-pyrrolo[1,2-a]imidazole hydrochloride]",change in vivo at 6.25 mg/kg,[1],72%
same,Percent Inhibition (-) or Enhancement (+) of migration,murine marcophage cells; 10^-5 m,-25.4%
same,Percent Inhibition (-) or Enhancement (+) of migration,murine marcophage cells; 10^-7 m,-8.8%
same,Percent Inhibition (-) or Enhancement (+) of migration,murine marcophage cells; 10^-8 m,-17.5%
same,Percent Inhibition (-) or Enhancement (+) of migration,murine marcophage cells; 10^-9 m,-29.7%
same,Percent Inhibition (-) or Enhancement (+) of migration,murine marcophage cells; 10^-10 m,-68.2%
same,Percent Inhibition (-) or Enhancement (+) of migration,murine marcophage cells; 10^-11 m,-36.8%
same,inhibition at 0.0001 µM,"murine marcophage cells; Mus musculus, Macrophage, 10^-10 molar concentration, read-out: inhibits migration",68.2%
"c1ccc(SC2CCN3CC(c4ccccc4)N=C23)cc1 (centres unmarked) [Example 2, 2,5,6,7-Tetrahydro-2-phenyl-7-phenyl-thio-3H-pyrrolo[1,2-a]imidazole hydrochloride]",change in vivo at 6.25 mg/kg,[1],29%
"COc1ccc(CSC2CCN3CC(c4ccccc4)N=C23)cc1 (centres unmarked) [Example 3, 2,5,6,7-Tetrahydro-2-phenyl-7-p-methoxybenzylthio-3H-pyrrolo[1,2-a]imidazole hydrochloride]",change in vivo at 6.25 mg/kg,[1],108%
same,Percent Inhibition (-) or Enhancement (+) of migration,murine marcophage cells; 10^-5 m,-94.9%
same,Percent Inhibition (-) or Enhancement (+) of migration,murine marcophage cells; 10^-7 m,-64.5%
same,Percent Inhibition (-) or Enhancement (+) of migration,murine marcophage cells; 10^-8 m,-43.0%
same,Percent Inhibition (-) or Enhancement (+) of migration,murine marcophage cells; 10^-9 m,-29.2%
"CCCCSC1CCN2CC(c3ccccc3)N=C12 (centres unmarked) [Example 7, 2,5,6,7-Tetrahydro-2-phenyl-7-n-butylthio-3H-pyrrolo[1,2-a]imidazole hydrochloride]",change in vivo at 6.25 mg/kg,[1],-49%
"COc1ccc(C2CN3CCC(Sc4ccccc4)C3=N2)cc1 (centres unmarked) [Example 8, 2,5,6,7-Tetrahydro-2-p-methoxyphenyl-7-phenylthio-3H-pyrrolo[1,2-a]imidazole hydrochloride]","percent change from control (i.e., without 6MP)","[1]; without 6MP treatment, 6.25 mg/Kg (i.p.) of compound",-36%
"CSC1CCCN2CC(c3ccccc3)N=C12 (centres unmarked) [Example 10, 2,3,5,6,7,8-Hexahydro-2-phenyl-8-methylthioimidazo[1,2-a]pyridine hydrochloride]",change in vivo at 6.25 mg/kg,[1],55%
same,Percent Inhibition (-) or Enhancement (+) of migration,murine marcophage cells; 10^-5 m,-94.1%
same,Percent Inhibition (-) or Enhancement (+) of migration,murine marcophage cells; 10^-7 m,-94.4%
same,Percent Inhibition (-) or Enhancement (+) of migration,murine marcophage cells; 10^-8 m,-88.4%
same,Percent Inhibition (-) or Enhancement (+) of migration,murine marcophage cells; 10^-9 m,-91.7%
same,Percent Inhibition (-) or Enhancement (+) of migration,murine marcophage cells; 10^-10 m,-97.4%
same,Percent Inhibition (-) or Enhancement (+) of migration,murine marcophage cells; 10^-11 m,-97.3%
"c1ccc(SC2CCCN3CC(c4ccccc4)N=C23)cc1 (centres unmarked) [Example 11, 2,3,5,6,7,8-Hexahydro-2-phenyl-8-phenylthioimidazo[1,2-a]pyridine sulfate (1:1) salt]",change in vivo at 6.25 mg/kg,[1],125%
same,restoration of the number of plaques,[1]; with 6-MP,greater than 100%
same,Mean Liver Score,"mouse hepatitis virus; 6.25 mg/Kg i.p., control 2.6",2.0
same,Percent Survival,"mouse hepatitis virus; 6.25 mg/Kg i.p., control 5%",10%
same,Mean Liver Score,mouse hepatitis virus; [2],1.8
same,Percent Survival,mouse hepatitis virus; [3],40%
same,Mean Liver Score,mouse hepatitis virus; [4],1.8
same,Percent Survival,mouse hepatitis virus; [5],40%
"Cc1ccc(SC2CCCN3CC(c4ccccc4)N=C23)cc1 (centres unmarked) [Example 12, 2,3,5,6,7,8-Hexahydro-2-phenyl-8-p-tolylthioimidazo[1,2-a]pyridine sulfate (1:1) salt]",change in vivo at 6.25 mg/kg,[1],50%
"Clc1ccc(SC2CCCN3CC(c4ccccc4)N=C23)cc1 (centres unmarked) [Example 13, 2,3,5,6,7,8-Hexahydro-2-phenyl-8-p-chlorophenylthioimidazo[1,2-a]pyridine sulfate (1:1) salt]",change in vivo at 6.25 mg/kg,[1],103%
"c1ccc(CSC2CCCN3CC(c4ccccc4)N=C23)cc1 (centres unmarked) [Example 14, 2,3,5,6,7,8-Hexahydro-2-phenyl-8-benzylthioimidazo[1,2-a]pyridine fumarate (1:1) salt]",Percent Inhibition (-) or Enhancement (+) of migration,murine marcophage cells; 10^-5 m,-29.1%
same,Percent Inhibition (-) or Enhancement (+) of migration,murine marcophage cells; 10^-7 m,-51.0%
same,Percent Inhibition (-) or Enhancement (+) of migration,murine marcophage cells; 10^-8 m,-51.0%
same,Percent Inhibition (-) or Enhancement (+) of migration,murine marcophage cells; 10^-9 m,-50.7%
same,Percent Inhibition (-) or Enhancement (+) of migration,murine marcophage cells; 10^-10 m,-10.2%
same,Percent Inhibition (-) or Enhancement (+) of migration,murine marcophage cells; 10^-11 m,-44.5%
"COc1ccc(CSC2CCCN3CC(c4ccccc4)N=C23)cc1 (centres unmarked) [Example 15, 2,3,5,6,7,8-Hexahydro-2-phenyl-8-p-methoxybenzylthioimidazo[1,2-a]pyridinefumarate (1:1) salt]",change in vivo at 6.25 mg/kg,[1],54%
same,Percent Inhibition (-) or Enhancement (+) of migration,murine marcophage cells; 10^-5 m,+2.6%
same,Percent Inhibition (-) or Enhancement (+) of migration,murine marcophage cells; 10^-7 m,+30.1%
same,Percent Inhibition (-) or Enhancement (+) of migration,murine marcophage cells; 10^-8 m,+35.6%
same,Percent Inhibition (-) or Enhancement (+) of migration,murine marcophage cells; 10^-9 m,+31.8%
same,Percent Inhibition (-) or Enhancement (+) of migration,murine marcophage cells; 10^-10 m,+33.8%
same,Percent Inhibition (-) or Enhancement (+) of migration,murine marcophage cells; 10^-11 m,-1.2%
same,activation at 0.01 µM,"murine marcophage cells; Mus musculus, Macrophage, 10^-8 molar concentration, read-out: stimulates migration",35.6%
"CSC1(SC)CCCN2CC(c3ccccc3)N=C21 (centres unmarked) [Example 16, 2,3,5,6,7,8-Hexahydro-2-phenyl-8,8-di(methylthio)imidazo[1,2-a]pyridine hydrochloride]",change in vivo at 6.25 mg/kg,[1],-25%
same,Mean Liver Score,"mouse hepatitis virus; 6.25 mg/Kg i.p., control 2.6",1.5
same,Percent Survival,"mouse hepatitis virus; 6.25 mg/Kg i.p., control 5%",60%
same,Mean Liver Score,mouse hepatitis virus; [2],2.0
same,Percent Survival,mouse hepatitis virus; [3],90%
"COC1(OC)CCN2CC(c3ccccc3)N=C21 (centres unmarked) [Example 25, 2,5,6,7-Tetrahydro-2-phenyl-7,7-dimethoxy-3H-pyrrolo[1,2-a]imidazole sulfate]",Mean Liver Score,mouse hepatitis virus; [2],2.6
same,Percent Survival,mouse hepatitis virus; [3],0%
same,Mean Liver Score,mouse hepatitis virus; [4],1.1
same,Percent Survival,mouse hepatitis virus; [5],0%
same,Mean Liver Score,"mouse hepatitis virus; 50 mg/Kg i.p., control 3.4",1.2
same,Percent Survival,"mouse hepatitis virus; 50 mg/Kg i.p., control 6%",0%
"COC1(OC)CCCN2C1=NCC2c1ccccc1 (centres unmarked) [Example 26, 2,3,5,6,7,8-Hexahydro-3-phenyl-8,8-dimethoxy imidazo[1,2-a]pyridine hydrochloride]",Mean Liver Score,mouse hepatitis virus; [2],2.7
same,Percent Survival,mouse hepatitis virus; [3],0%
same,Mean Liver Score,mouse hepatitis virus; [4],2.3
same,Percent Survival,mouse hepatitis virus; [5],0%
"[O-][S+](c1ccccc1)C1CCCN2CC(c3ccccc3)N=C12 (centres unmarked) [Example 28, 2,3,5,6,7,8-Hexahydro-2-phenyl-8-phenylsulfinylimidazo[1,2-a]pyridine sulfate]",change in vivo at 6.25 mg/kg,[1],-24%
same,further suppression of the number of plaques,[1]; with 6-MP,about 24%
"c1ccc(SC2(Sc3ccccc3)CCCn3cc(-c4ccccc4)nc32)cc1 [Example 33, 5,6,7,8-Tetrahydro-2-phenyl-8,8-diphenylthio imidazo[1,2-a]pyridine]",change in vivo at 6.25 mg/kg,[1],25%
